Common to all, as to format: in vivo
For experiment [1], the system named is Phytophthora infestans (PHYTIN). As to conditions: 1DC.
The test system is the same in experiment [2]. The experiment can be described thus: whole plant or invertebrate. As to conditions: for pest or weed control at 1.85 ppm: read-out: % Disease Control (observed); for pest or weed control at 1.9 ppm: 1.90 ppm alone.
For experiment [3], the system named is Plasmopara viticola (PLASVI).
For experiment [4], the system named is Plasmopara viticola (PLASVI). Nature of the experiment: whole plant or invertebrate.
The mark [5] stands for this setting: Plasmopara viticola, 72 h, read-out: % Disease Control (observed), 3DP, 5.56 ppm alone.
The mark [6] stands for this setting: Phytophthora infestans, 72 h, read-out: % Disease Control (observed), 3DP, 0.60 ppm alone.
Setting [7] is: PHYTIN 3DP, applied alone at 1.1 ppm.
Where [8] appears, read: PLASVI 3DP, applied alone at 1.1 ppm.

Molecules are shown by their SMILES. Where “and” joins values, the source holds several entries; their conditions need not be identical. Identical values can stand only once. Like-named read-outs stand apart in the source and are kept apart here.

As to `COc1ccc(C(=CC(=O)N2CCOCC2)c2ccc(Cl)cc2)cc1OC` [Dimethomorph, dimethomorph], the “% Disease Control (Observed)” value in experiment [1] (5.56 ppm alone) was found to be 0.0%; in experiment [1] (16.70 ppm alone) it was 29.8%; in experiment [1] (50.00 ppm alone), 33.3%; in experiment [2] (PHYTIN 3DP, applied alone at 1.4 ppm) it was 3.5%; in experiment [3] (1DC, 5.56 ppm alone), 8.8%; in experiment [4] (PLASVI 3DP, applied alone at 0.5 ppm), 3.5%. In experiment [4] (PLASVI 3DP, applied alone at 1.4 ppm), the “% Disease Control (Observed)” value worked out at 22.8%. The pest or weed control at 1.85 ppm in experiment [2] (Phytophthora infestans, 72 h) is 12.3%; in experiment [4] (Plasmopara viticola, 72 h, read-out: % Disease Control (observed), 3DP, 1.85 ppm alone), 5.3%. Further, the pest or weed control at 0.62 ppm in experiment [2] (Phytophthora infestans, 72 h, read-out: % Disease Control (observed), 3DP, 0.62 ppm alone) was found to be 0%. In experiment [4] (setting [5]), the pest or weed control at 5.56 ppm turned out to be 63.2%.
With `COC(=O)C(C)N(C(=O)Cc1ccccc1)c1c(C)cccc1C` (centres unmarked) [Benalaxyl, benalaxyl], the “% Disease Control (Observed)” value in experiment [1] (1.90 ppm alone) was 8.8%; in experiment [1] (16.70 ppm alone), 12.3%; in experiment [3] (1DC, 0.60 ppm alone), 24.6%.
As for `Cc1ccc(C(C)NC(=O)[C@@H](NC(=O)OC(C)C)C(C)C)cc1` (some centres unmarked) [Iprovalicarb, iprovalicarb], the “% Disease Control (Observed)” value in experiment [2] (3DP, 5.56 ppm alone) stood at 1.8%; in experiment [2] (3DP, 16.70 ppm alone), 33.3%; in experiment [3] (1DC, 5.56 ppm alone) it was 40.0%; in experiment [3] (1DC, 16.70 ppm alone), 50.0%; in experiment [4] (3DP, 1.85 ppm alone), 8.8%; in experiment [4] (3DP, 5.56 ppm alone), 26.3%.
On to `CC(C)OC(=O)N[C@H](C(=O)N[C@H](C)c1nc2ccc(F)cc2s1)C(C)C` [Benthivalicarb, benthivalicarb], for which the “% Disease Control (Observed)” value in experiment [1] (0.62 ppm alone) is 28.1%; in experiment [2] (1DP, 0.62 ppm alone) it was 31.6%; in experiment [4] (1DP, 0.62 ppm alone), 57.9%.
As to `Cc1cccc(C)c1N(C(=O)CCl)C1CCOC1=O` (centres unmarked) [Ofurace, ofurace], the “% Disease Control (Observed)” value in experiment [1] (1.90 ppm alone) is 12.3%; in experiment [1] (5.60 ppm alone) it was 61.0%; in experiment [3] (1DC, 0.60 ppm alone), 21.1%. Also, the pest or weed control at 0.6 ppm in experiment [2] (setting [6]) was found to be 0%. In experiment [2] (Phytophthora infestans, 72 h, read-out: % Disease Control (observed), 3DP), the pest or weed control at 1.9 ppm came to 0%.
Take `CCNC(=O)NC(=O)/C(C#N)=N/OC` [Cymoxanil, cymoxanil]: the “% Disease Control (Observed)” value came to 49.1% in experiment [1] (16.7 ppm alone); 1.8% in experiment [2] (setting [7]); 10.5% in experiment [3] (1DC, 5.56 ppm alone); 35.1% in experiment [3] (1DC, 16.70 ppm alone); 17.5% in experiment [4] (setting [8]).
Consider `COCC(=O)N(c1c(C)cccc1C)[C@H](C)C(=O)OC` [Mefenoxam, mefenoxam], for which the “% Disease Control (Observed)” value in experiment [1] (1.85 ppm alone) is recorded as 56.1%; in experiment [2] (1DP, 0.60 ppm alone) it was 12.3%; in experiment [2] (PHYTIN 2DP, applied alone at 3.7 ppm), 12.3%; in experiment [2] (PHYTIN 2DP, applied alone at 11.1 ppm), 17.5%; in experiment [3] (in vivo) it was 94.7%; in experiment [4] (1DP, 0.21 ppm alone), 33.3%. Further, the “% Disease Control (Observed)” value stood at 82.5% in experiment [4] (1DP, 0.62 ppm alone); 38.6% in experiment [4] (PLASVI 2DP, applied alone at 11.1 ppm); 66.7% in experiment [4] (PLASVI 2DP, applied alone at 33.3 ppm).
Regarding `CC[C@H](CS(=O)(=O)C(C)c1ccc(C#N)cc1)NC(=O)Oc1ccc(F)cc1` (stereo partly drawn) [Formula III, 4-fluorophenyl(1S)-1-({[(1R,S)-(4-cyanophenyl)ethyl]sulfonyl}methyl)-propylcarbamate], the “% Disease Control (Observed)” value was determined as 0.0% in experiment [1] (0.62 ppm alone); 0.0% in experiment [1] (0.90 ppm alone); 35.1% in experiment [1] (1.85 ppm alone); 21.1% in experiment [1] (1.90 ppm alone); 5.3% in experiment [1] (5.56 ppm alone); 8.8% in experiment [1] (8.30 ppm alone). In addition, the “% Disease Control (Observed)” value in experiment [1] (16.70 ppm alone) is recorded as 31.6%; in experiment [2] (4DP, 0.60 ppm alone), 15.8%; in experiment [2] (4DP, 2.80 ppm alone), 34.2%; in experiment [2] (4DP, 5.60 ppm alone), 21.10%; in experiment [2] (PHYTIN 2DP, applied alone at 0.4 ppm), 5.3%; in experiment [2] (PHYTIN 2DP, applied alone at 1.1 ppm), 15.8%. Further, the “% Disease Control (Observed)” value in experiment [2] (PHYTIN 2DP, applied alone at 5.56 ppm) came to 12.3%; in experiment [2] (PHYTIN 3DP, applied alone at 0.62 ppm) it was 3.5%; in experiment [2] (setting [7]), 12.3%; in experiment [2] (PHYTIN 6DP, applied alone at 1.1 ppm), 3.5%; in experiment [2] (PHYTIN 6DP, applied alone at 3.3 ppm), 33.3%; in experiment [2] (in vivo), 26.3%. In addition, the “% Disease Control (Observed)” value in experiment [3] (1DC, 0.60 ppm alone) was 5.3%; in experiment [3] (1DC, 0.90 ppm alone) it was 0.0%; in experiment [3] (1DC, 1.85 ppm alone), 17.5%; in experiment [3] (1DC, 2.80 ppm alone) it was 8.8% and 16.0%; in experiment [3] (1DC, 5.56 ppm alone) it was 17.5%; in experiment [3] (1DC, 16.70 ppm alone), 45.6%. The “% Disease Control (Observed)” value in experiment [4] (1DP, 0.20 ppm alone) was 8.8%; in experiment [4] (1DP, 0.67 ppm alone), 49.1%; in experiment [4] (4DP, 1.90 ppm alone), 26.30%; in experiment [4] (PLASVI 2DP, applied alone at 0.4 ppm), 8.8%; in experiment [4] (PLASVI 2DP, applied alone at 1.1 ppm) it was 22.8%; in experiment [4] (PLASVI 2DP, applied alone at 1.85 ppm), 7.0%. Moreover, the “% Disease Control (Observed)” value turned out to be 42.1% in experiment [4] (PLASVI 2DP, applied alone at 3.3 ppm); 19.3% in experiment [4] (PLASVI 2DP, applied alone at 5.56 ppm); 1.8% in experiment [4] (PLASVI 3DP, applied alone at 0.4 ppm); 12.3% in experiment [4] (setting [8]); 31.6% in experiment [4] (PLASVI 3DP, applied alone at 5.56 ppm); 12.3% in experiment [4] (PLASVI 6DP, applied alone at 3.3 ppm). In addition, the pest or weed control at 0.6 ppm in experiment [2] (Phytophthora infestans, 24 h, read-out: % Disease Control (observed), 1DP, 0.60 ppm alone) turned out to be 3.5%; in experiment [2] (setting [6]), 73.7%. For the same compound, the pest or weed control at 1.9 ppm in experiment [2] (Phytophthora infestans, 24 h, read-out: % Disease Control (observed), 1DP) came to 78.6%. Besides, the pest or weed control at 0.62 ppm in experiment [2] (Phytophthora infestans, 48 h, read-out: % Disease Control (observed), 2DP, 0.62 ppm alone) was determined as 8.8%; in experiment [4] (Plasmopara viticola, 24 h, read-out: % Disease Control (observed), 1DP, 0.62 ppm alone), 17.5%; in experiment [4] (Plasmopara viticola, 48 h, read-out: % Disease Control (observed), 2DP, 0.62 ppm alone), 1.8%. The pest or weed control at 5.56 ppm in experiment [2] (Phytophthora infestans, 48 h, read-out: % Disease Control (observed), 2DP, 5.56 ppm alone) was 12.3%; in experiment [2] (Phytophthora infestans, 72 h, read-out: % Disease Control (observed), 3DP, 5.56 ppm alone), 57.9%; in experiment [2] (Phytophthora infestans, 72 h, read-out: % Disease Control (observed), Table 10, PHYTIN (3DP) as printed, 5.56 ppm alone), 31.6%; in experiment [4] (Plasmopara viticola, 24 h, read-out: % Disease Control (observed), 1DP, 5.56 ppm alone), 78.9%; in experiment [4] (Plasmopara viticola, 24 h, read-out: % Disease Control (observed), 1DP, Table 14, 5.56 ppm alone), 78.9%; in experiment [4] (Plasmopara viticola, 48 h, read-out: % Disease Control (observed), 2DP, 5.56 ppm alone) it was 56.1%. Besides, the pest or weed control at 5.56 ppm is 40.4% in experiment [4] (setting [5]) and 52.6% in experiment [4] (Plasmopara viticola, 168 h, read-out: % Disease Control (observed), 7DP, 5.56 ppm alone). The pest or weed control at 0.21 ppm in experiment [2] (Phytophthora infestans, 72 h, read-out: % Disease Control (observed), 3DP, 0.21 ppm alone) amounted to 0%; in experiment [4] (Plasmopara viticola, 24 h, read-out: % Disease Control (observed), 1DP, 0.21 ppm alone), 14%; in experiment [4] (Plasmopara viticola, 72 h, read-out: % Disease Control (observed), 3DP, 0.21 ppm alone), 0%. In addition, the pest or weed control at 0.9 ppm in experiment [2] (Phytophthora infestans, 72 h, read-out: % Disease Control (observed), 3DP, 0.90 ppm alone) is 1.8%. In addition, the pest or weed control at 2.8 ppm in experiment [2] (Phytophthora infestans, 72 h, read-out: % Disease Control (observed), 3DP, 2.80 ppm alone) worked out at 47.4%. Besides, the pest or weed control at 1.85 ppm in experiment [2] (Phytophthora infestans, 96 h) stood at 38.6%; in experiment [4] (Plasmopara viticola, 24 h, read-out: % Disease Control (observed), 1DP, 1.85 ppm alone), 71.9%; in experiment [4] (Plasmopara viticola, 24 h, read-out: % Disease Control (observed), 1DP, Table 14, 1.85 ppm alone), 24.6%; in experiment [4] (Plasmopara viticola, 48 h, read-out: % Disease Control (observed), 2DP, 1.85 ppm alone) it was 15.8%; in experiment [4] (Plasmopara viticola, 168 h, read-out: % Disease Control (observed), 7DP, 1.85 ppm alone), 14%. Besides, the pest or weed control at 0.2 ppm in experiment [4] (Plasmopara viticola, 24 h, read-out: % Disease Control (observed), 1DP, 0.20 ppm alone) worked out at 1.8%. The pest or weed control at 0.3 ppm in experiment [4] (Plasmopara viticola, 72 h, read-out: % Disease Control (observed), 3DP, 0.30 ppm alone) was 0%.

These data come from patent US20060153933A1 (priority 2002, published 2006).
